Usually IC50 stands for the concentration at which inhibition is half-maximal. Low values mean higher potency, high ones lower potency. The EC50 is the midpoint of the concentration-response curve. Read a low EC50 as higher potency in that assay.

Where only a bound is given, the exact number is not on record here.

From US12312359B2 (Vitae Pharmaceuticals, LLC, priority 2016, dated 2025) come the findings set out here.

Assay [1] addresses T1, biotinylated wild-type menin and MLL-AF9 fusion protein (menin/MLL binding) (Homo sapiens, UniProt O00255).
T1 construct: made in house; host or cells: menin: E. coli; MLL-AF9-FLAG: HEK293 cells, used as cleared lysate
T1 sequence (O00255 1-610): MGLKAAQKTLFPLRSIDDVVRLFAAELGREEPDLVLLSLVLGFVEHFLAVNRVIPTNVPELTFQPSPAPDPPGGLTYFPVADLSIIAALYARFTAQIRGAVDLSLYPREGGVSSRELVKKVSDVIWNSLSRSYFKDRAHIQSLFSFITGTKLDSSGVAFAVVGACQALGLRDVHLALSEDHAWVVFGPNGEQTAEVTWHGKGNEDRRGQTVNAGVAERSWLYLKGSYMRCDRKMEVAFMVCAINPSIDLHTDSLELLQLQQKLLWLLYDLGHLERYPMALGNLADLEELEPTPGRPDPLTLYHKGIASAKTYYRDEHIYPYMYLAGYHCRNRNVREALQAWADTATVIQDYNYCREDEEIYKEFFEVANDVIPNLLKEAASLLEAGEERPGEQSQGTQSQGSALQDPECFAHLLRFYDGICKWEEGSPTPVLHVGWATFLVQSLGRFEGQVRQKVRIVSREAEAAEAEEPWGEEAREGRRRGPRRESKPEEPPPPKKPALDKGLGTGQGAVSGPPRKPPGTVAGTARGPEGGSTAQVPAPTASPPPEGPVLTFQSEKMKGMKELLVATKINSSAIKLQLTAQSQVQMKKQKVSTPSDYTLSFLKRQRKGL
Nature of the assay: Assay 1: menin/MLL binding AlphaLISA assay, wild-type menin. The settings on record: Table 30; column head does not say wild-type or mutated menin. The method in brief:
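Compound was preincubated 30 min at room temperature with biotinylated menin (5 nM) and MLL-AF9-FLAG lysate from HEK293 cells, pH 7.4 buffer with 5% DMSO and DTT. Bead-based Alpha signal after 60 min with streptavidin donor and anti-FLAG acceptor beads; four-parameter logistic fit gave IC50.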
Background: Bead proximity is the source of the signal in Alpha formats.

In assay [2] the test system is human acute monocytic leukemia cell line MV-4-11. Briefly: Assay 2: cell proliferation assay (ATP quantitation, CellTiter-Glo), MV-4-11. It is filed as cell-based. The following applies: MV-4-11 cells. The method in brief:
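MV-4-11 cells, 1.67×10^4 per well in medium with 10% FBS, were exposed to compound for 72 h at 37° C., 5% CO2; HL-60 cells served as toxicity control. Proliferation read as ATP content by CellTiter-Glo luminescence.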
On the technique in general: ATP-based viability assays read luminescence as a measure of living cells.

In turn, `CC(C)C(=O)N(CCO)c1cc(F)ccc1Oc1cncnc1N1CCC2(CCN(Cc3ccc4[nH]c(=O)[nH]c4c3)C2)C1` (stereo not shown) [Example 185, N-(5-fluoro-2-((4-(7-((2-oxo-2,3-dihydro-1H-benzo[d]imidazol-5-yl)methyl)-2,7-diazaspiro[4.4]nonan-2-yl)pyrimidin-5-yl)oxy)phenyl)-N-(2-hydroxyethyl)iso-butyramide] had an IC50 in assay [1] below 100 nM. This compound returned a 50% effective concentration (EC50) in assay [2] (Homo sapiens, MV4-11, 72 h) of 100 to 1000 nM.
In assay [1], `CCN(C(=O)C(C)C)c1cc(F)ccc1Oc1cncnc1N1CCC2(CCN(Cc3ccc4[nH]c(=O)[nH]c4c3)C2)C1` (stereo not shown) [Example 186, N-ethyl-N-(5-fluoro-2-((4-(7-((2-oxo-2,3-dihydro-1H-benzo[d]imidazol-5-yl)methyl)-2,7-diazaspiro[4.4]nonan-2-yl)pyrimidin-5-yl)oxy)phenyl) isobutyramide] had an IC50 below 100 nM. Further, the EC50 in assay [2] (Homo sapiens, MV4-11, 72 h) was below 100 nM.
Turning to `CC(C)C(=O)N(CC(F)(F)F)c1cc(F)ccc1Oc1cncnc1N1CCC2(CCN(Cc3ccc4[nH]c(=O)[nH]c4c3)C2)C1` (stereo not shown) [Example 187, N-(5-fluoro-2-((4-(7-((2-oxo-2,3-dihydro-1H-benzo[d]imidazol-5-yl)methyl)-2,7-diazaspiro[4.4]nonan-2-yl)pyrimidin-5-yl)oxy)phenyl)-N-(2,2,2-trifluoroethyl)iso-butyramide], the IC50 in assay [1] was below 100 nM. In assay [2] (Homo sapiens, MV4-11, 72 h), the EC50 is below 100 nM.
As for `CC(=O)N[C@H]1CC[C@H](CN2CCC3(CCN(c4ncncc4Oc4ccc(F)cc4-c4ccc(C#N)cc4C4CC4)C3)C2)CC1` (stereo partly shown) [Example 188, N-((1r,4r)-4-((7-(5-((4′-cyano-2′-cyclopropyl-5-fluoro-[1,1′-biphenyl]-2-yl)oxy)pyrimidin-4-yl)-2,7-diazaspiro[4.4]nonan-2-yl)methyl)cyclohexyl) acetamide], in assay [1], the IC50 is below 100 nM. In assay [2] (Homo sapiens, MV4-11, 72 h), this compound returned an EC50 of 100 to 1000 nM.
The corresponding values for `CC(C)(C)OC(=O)N[C@H]1CC[C@H](CCN2CC3(C2)CN(c2ncncc2Oc2ccc(F)cc2-c2ccc(C#N)cc2C2CC2)C3)CC1` [Example 189, tert-butyl ((1r,4r)-4-(2-(6-(5-((4′-cyano-2′-cyclopropyl-5-fluoro-[1,1′-biphenyl]-2-yl)oxy)pyrimidin-4-yl)-2,6-diazaspiro[3.3]heptan-2-yl)ethyl)cyclohexyl) carbamate] are below 100 nM and 100 to 1000 nM.
Turning to `CC(C)c1scnc1-c1cc(F)ccc1Oc1cncnc1N1CCC2(CCN(Cc3ccc4[nH]c(=O)[nH]c4c3)C2)C1` (stereo not shown) [Example 190, 5-((7-(5-(4-fluoro-2-(5-isopropylthiazol-4-yl)phenoxy)pyrimidin-4-yl)-2,7-diazaspiro[4.4]nonan-2-yl)methyl)-1,3-dihydro-2H-benzo[d]imidazol-2-one], the IC50 in assay [1] was below 100 nM. In assay [2] (Homo sapiens, MV4-11, 72 h), this compound gave an EC50 below 100 nM.
Compound `CC(=O)N[C@H]1CC[C@@H](CN2CCC3(CCN(c4ncncc4Oc4ccc(F)cc4-c4ccc(C#N)cc4C4CC4)C3)C2)CC1` (stereo partly shown) [Example 190A, N-((1s,4s)-4-((7-(5-((4′-cyano-2′-cyclopropyl-5-fluoro-[1,1′-biphenyl]-2-yl)oxy)pyrimidin-4-yl)-2,7-diazaspiro[4.4]nonan-2-yl)methyl)cyclohexyl) acetamide] yielded an IC50 in assay [1] below 100 nM. The EC50 in assay [2] (Homo sapiens, MV4-11, 72 h) lay in the range of 100 to 1000 nM.
The corresponding values for `CCn1c(=O)[nH]c2cc(CN3CCC4(CCN(c5ncncc5Oc5ccc(F)cc5-c5ccc(C#N)cc5C5CC5)C4)C3)ccc21` (stereo not shown) [Example 191, 2-cyclopropyl-2′-((4-(7-((1-ethyl-2-oxo-2,3-dihydro-1H-benzo[d]imidazol-5-yl)methyl)-2,7-diazaspiro[4.4]nonan-2-yl)pyrimidin-5-yl)oxy)-5′-fluoro-[1,1′-biphenyl]-4-carbonitrile] are below 100 nM and below 100 nM.
The corresponding values for `N#Cc1ccc2c(CN3CCC4(CCN(c5ncncc5Oc5ccc(F)cc5OC5CCCC5)C4)C3)c[nH]c2c1` (stereo not shown) [Example 192, 3-((7-(5-(2-(cyclopentyloxy)-4-fluorophenoxy)pyrimidin-4-yl)-2,7-diazaspiro[4.4]nonan-2-yl)methyl)-1H-indole-6-carbonitrile] are below 100 nM and 100 to 1000 nM.
The corresponding values for `CC1(C)C(=O)Nc2cc(CN3CCC4(CCN(c5ncncc5Oc5ccc(F)cc5OC5CCCC5)C4)C3)ccc21` (stereo not shown) [Example 193, 6-((7-(5-(2-(cyclopentyloxy)-4-fluorophenoxy)pyrimidin-4-yl)-2,7-diazaspiro[4.4]nonan-2-yl)methyl)-3,3-dimethylindolin-2-one] are below 100 nM and below 100 nM.
In the case of `CC(C)N(C)C(=O)c1cc(F)ccc1Oc1cncnc1N1CCC2(CCN(Cc3c[nH]c4cc(C#N)ccc34)C2)C1` (stereo not shown) [Example 194, 2-((4-(7-((6-cyano-1H-indol-3-yl)methyl)-2,7-diazaspiro[4.4]nonan-2-yl)pyrimidin-5-yl)oxy)-5-fluoro-N-isopropyl-N-methylbenzamide], the IC50 in assay [1] was below 100 nM. Besides, the concentration giving a half-maximal response (EC50) in assay [2] (Homo sapiens, MV4-11, 72 h) was in the range of 100 to 1000 nM.
The corresponding values for `N#Cc1ccc(-c2cc(F)ccc2Oc2cncnc2N2CCC3(CCN(Cc4ccc(N5CCCC5=O)cc4)C3)C2)c(C2CC2)c1` (stereo not shown) [Example 195, 2-cyclopropyl-5′-fluoro-2′-((4-(7-(4-(2-oxopyrrolidin-1-yl)benzyl)-2,7-diazaspiro [4.4]nonan-2-yl)pyrimidin-5-yl)oxy)-[1,1′-biphenyl]-4-carbonitrile] are below 100 nM and 100 to 1000 nM.
Regarding `N#Cc1ccc(-c2cc(F)ccc2Oc2cncnc2N2CCC3(CCN(Cc4ccc5c(c4)NC(=O)C5)C3)C2)c(C2CC2)c1` (stereo not shown) [Example 196, 2-cyclopropyl-5′-fluoro-2′-((4-(7-((2-oxoindolin-6-yl)methyl)-2,7-diazaspiro[4.4]nonan-2-yl)pyrimidin-5-yl)oxy)-[1,1′-biphenyl]-4-carbonitrile], the IC50 in assay [1] was below 100 nM. Further, the 50% effective concentration (EC50) in assay [2] (Homo sapiens, MV4-11, 72 h) is below 100 nM.
In assay [1], `CC(C)n1nccc1-c1cc(F)ccc1Oc1cncnc1N1CCC2(CCN(Cc3ccc4nn[nH]c4c3)C2)C1` (stereo not shown) [Example 198, 6-((7-(5-(4-fluoro-2-(1-isopropyl-1H-pyrazol-5-yl)phenoxy)pyrimidin-4-yl)-2,7-diazaspiro[4.4]nonan-2-yl)methyl)-1H-benzo[d][1,2,3] triazole] showed an IC50 below 100 nM. In assay [2] (Homo sapiens, MV4-11, 72 h), this compound gave an EC50 below 100 nM.
In assay [1], `N#Cc1ccc(-c2cc(F)cc(F)c2Oc2cncnc2N2CCC3(CCN(Cc4ccc5[nH]c(=O)[nH]c5c4)C3)C2)c(C2CC2)c1` (stereo not shown) [Example 199, 2-cyclopropyl-3′,5′-difluoro-2′-((4-(7-((2-oxo-2,3-dihydro-1H-benzo[d]imidazol-5-yl)methyl)-2,7-diazaspiro[4.4]nonan-2-yl)pyrimidin-5-yl)oxy)-[1,1′-biphenyl]-4-carbonitrile] gave an IC50 below 100 nM. For the same compound, in assay [2] (72 h), the EC50 is at least 1000 nM.
Take `NC(=O)c1ccc2c(CN3CCC4(CCN(c5ncncc5Oc5ccc(F)cc5OCC5CC5)C4)C3)c[nH]c2c1` (stereo not shown) [Example 200, 3-((7-(5-(2-(cyclopropylmethoxy)-4-fluorophenoxy)pyrimidin-4-yl)-2,7-diazaspiro[4.4]nonan-2-yl)methyl)-1H-indole-6-carboxamide]: the IC50 in assay [1] was below 100 nM. This compound registered an EC50 in assay [2] (Homo sapiens, MV4-11, 72 h) of 100 to 1000 nM.
The corresponding values for `N#Cc1ccc2c(CN3CCC4(CCN(c5ncncc5Oc5ccc(F)cc5OCC5CC5)C4)C3)c[nH]c2c1` (stereo not shown) [Example 201, 3-((7-(5-(2-(cyclopropylmethoxy)-4-fluorophenoxy)pyrimidin-4-yl)-2,7-diazaspiro[4.4]nonan-2-yl)methyl)-1H-indole-6-carbonitrile] are below 100 nM and at least 1000 nM.
In assay [1], `CC(C)N(C)C(=O)c1cc(F)ccc1Oc1cncnc1N1CCC2(CCN(Cc3ccc4c(c3)NC(=O)C4(C)C)C2)C1` (stereo not shown) [Example 202, 2-((4-(7-((3,3-dimethyl-2-oxoindolin-6-yl)methyl)-2,7-diazaspiro[4.4]nonan-2-yl)pyrimidin-5-yl)oxy)-5-fluoro-N-isopropyl-N-methylbenzamide] gave an IC50 below 100 nM. The same compound gave an EC50 in assay [2] (Homo sapiens, MV4-11, 72 h) of 100 to 1000 nM.
The corresponding values for `N#Cc1ccc(CCN2CC3(C2)CN(c2ncncc2Oc2ccc(F)cc2-c2ccc(C#N)cc2C2CC2)C3)cc1` [Example 203, 2′-((4-(6-(4-cyanophenethyl)-2,6-diazaspiro[3.3]heptan-2-yl)pyrimidin-5-yl)oxy)-2-cyclopropyl-5′-fluoro-[1,1′-biphenyl]-4-carbonitrile] are below 100 nM and at least 1000 nM.
In assay [1], `N#Cc1ccc(-c2cc(F)ccc2Oc2cncnc2N2CCC3(CCN(Cc4ccc5c(c4)CC(=O)N5)C3)C2)c(C2CC2)c1` (stereo not shown) [Example 204, 2-cyclopropyl-5′-fluoro-2′-((4-(7-((2-oxoindolin-5-yl)methyl)-2,7-diazaspiro[4.4]nonan-2-yl)pyrimidin-5-yl)oxy)-[1,1′-biphenyl]-4-carbonitrile] gave an IC50 below 100 nM. The same compound yielded an EC50 in assay [2] (Homo sapiens, MV4-11, 72 h) of 100 to 1000 nM.
